Laboratory results reported in PMC6783499, “Heteroglycoclusters With Dual Nanomolar Affinities for the Lectins LecA and LecB From Pseudomonas aeruginosa” (Frontiers in Chemistry, 2019).
Several values for one entry are separate records, joined by “and”; a condition that tells them apart may be missing. Identical values can stand only once.

Biological target: T1, LecA (Pseudomonas aeruginosa, UniProt Q05097)
T1 construct: made in house; host or cells: Escherichia coli BL21(DE3)
Assay: biochemical
Format: binding
Details: for n (stoichiometry, glycocluster molecules per lectin monomer) / –ΔG / –ΔH / −TΔS / –ΔH (binding enthalpy): ITC; for n (stoichiometry, glycocluster molecules per lectin monomer) / –ΔG / –ΔH / −TΔS: 25°C; for n (stoichiometry, glycocluster molecules per lectin monomer): pH 7.5; for –ΔG / –ΔH / −TΔS: per mole of glycocluster; for α (relative potency compared to the monovalent compound) / β (relative potency per sugar unit): relative to βGal-OMe
Description: The resulting hGCs were tested in solution with lectins by Isothermal Titration Calorimetry (Table 1) and their binding properties were compared with homoclusters 15–20 (Berthet et al., [2013]; Thomas et al., [2015b]) displaying either 4 and 16 βGal or αFuc units attached with an oxime or a triazole linker (Figure 3). […] Experiments were performed in direct injection mode (i.e., ligand in syringe and protein in cell) to minimize aggregation problems.
All chemical reagents were purchased from Aldrich (Saint Quentin Fallavier, France) or Acros (Noisy-Le-Grand, France). All protected amino acids and Fmoc-Gly-Sasrin® resin was obtained from Advanced ChemTech Europe (Brussels, Belgium). For peptides and glycopeptides, analytical RP-HPLC was performed on Waters system equipped with a Waters 2695 separations module and a Waters 2487 Dual Absorbance UV/Visible Detector. Analysis was carried out at 1.0 mL/min (EC 125/3 nucleosil 300-5 C18) with UV monitoring at 214 nm and 250 nm using a linear A–B gradient (buffer A: 0.09% CF3CO2H in water; buffer B: 0.09% CF3CO2H in 90% acetonitrile). Purifications were carried out at 22.0 mL/min (VP 250/21 nucleosil 100-7 C18) with UV monitoring at 214 nm and 250 nm using a linear A–B gradient. HRMS and ESI-MS and HRMS spectra of peptides and glycopeptides were measured on an Esquire 3000 spectrometer from Bruker. Lectins LecA and LecB were produced in recombinant form in Escherichia coli BL21(DE3) as described previously (Mitchell et al., [2005]; Blanchard et al., [2008]).
Other compounds were assayed with a VP-ITC isothermal titration calorimeter (Microcal). The experiments were carried out at 25°C. All glycocompounds and lectins LecB and LecA were dissolved in the same buffer composed of 20 mM Tris with 100 mM NaCl and 0.1 mM CaCl2 at pH 7.5. For PEAQ-ITC, the lectins were placed in the microcalorimeter cell (200 μL) at concentrations varying from 35 to 70 μM. […] For VP-ITC, the microcalorimeter cell (1.447 mL) contained the lectins with concentrations between 30 and 100 μM. […] The experimental data were fitted to a theoretical titration curve using the Microcal PEAQ-ITC analysis software, with ΔH (enthalpy change), Ka (association constant), and N (number of binding sites per monomer) as adjustable parameters. Dissociation constant (Kd), free energy change (ΔG), and entropy contributions (TΔS) were derived from the previous ones. Two or three independent titrations were performed for each ligand tested.

T1 sequence (Q05097 whole entry): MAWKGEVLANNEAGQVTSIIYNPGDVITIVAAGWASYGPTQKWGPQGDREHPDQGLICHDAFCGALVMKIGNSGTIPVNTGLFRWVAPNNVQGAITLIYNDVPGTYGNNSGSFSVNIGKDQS

C[C@@H]1NC(=O)[C@H](CCCCn2cc(CO[C@@H]3O[C@H](CO)[C@H](O)[C@H](O)[C@H]3O)nn2)NC(=O)CNC(=O)[C@@H]2CCCN2C(=O)[C@H](CCCCn2cc(CO[C@@H]3O[C@H](CO)[C@H](O)[C@H](O)[C@H]3O)nn2)NC(=O)[C@H](CCCCN)NC(=O)[C@H](CCCCn2cc(CO[C@@H]3O[C@H](CO)[C@H](O)[C@H](O)[C@H]3O)nn2)NC(=O)CNC(=O)[C@@H]2CCCN2C(=O)[C@H](CCCCn2cc(CO[C@@H]3O[C@H](CO)[C@H](O)[C@H](O)[C@H]3O)nn2)NC1=O [Compound 18] was tested, and the “n (stoichiometry, glycocluster molecules per lectin monomer)” value (LecA) was 0.26, the “–ΔG” value (LecA) was 10.5 kcal/mol and the “–ΔH” value (LecA) was 33.22 ± 0.24 kcal/mol. The “−TΔS” value (LecA) was 22.8 kcal/mol, the “α (relative potency compared to the monovalent compound)” value (LecA) was 7,000 and 6,818 and the “β (relative potency per sugar unit)” value (LecA) was 1,700 and 1,705.

In the case of CO[C@@H]1O[C@H](CO)[C@H](O)[C@H](O)[C@H]1O [βGal-OMe, methyl β-D-galactoside], the “α (relative potency compared to the monovalent compound)” value (LecA) is reported as 1 and the “β (relative potency per sugar unit)” value (LecA) is reported as 1.

With C[C@@H]1NC(=O)[C@H](CCCCNC(=O)/C=N/OCC(=O)NCCCC[C@@H]2NC(=O)[C@H](CCCCn3cc(CO[C@@H]4O[C@H](CO)[C@H](O)[C@H](O)[C@H]4O)nn3)NC(=O)CNC(=O)[C@@H]3CCCN3C(=O)[C@H](CCCCn3cc(CO[C@@H]4O[C@H](CO)[C@H](O)[C@H](O)[C@H]4O)nn3)NC(=O)[C@H](C)NC(=O)[C@H](CCCCn3cc(CO[C@@H]4O[C@H](CO)[C@H](O)[C@H](O)[C@H]4O)nn3)NC(=O)CNC(=O)[C@@H]3CCCN3C(=O)[C@H](CCCCn3cc(CO[C@@H]4O[C@H](CO)[C@H](O)[C@H](O)[C@H]4O)nn3)NC2=O)NC(=O)CNC(=O)[C@@H]2CCCN2C(=O)[C@H](CCCCNC(=O)/C=N/OCC(=O)NCCCC[C@@H]2NC(=O)[C@H](CCCCn3cc(CO[C@@H]4O[C@H](CO)[C@H](O)[C@H](O)[C@H]4O)nn3)NC(=O)CNC(=O)[C@@H]3CCCN3C(=O)[C@H](CCCCn3cc(CO[C@@H]4O[C@H](CO)[C@H](O)[C@H](O)[C@H]4O)nn3)NC(=O)[C@H](C)NC(=O)[C@H](CCCCn3cc(CO[C@@H]4O[C@H](CO)[C@H](O)[C@H](O)[C@H]4O)nn3)NC(=O)CNC(=O)[C@@H]3CCCN3C(=O)[C@H](CCCCn3cc(CO[C@@H]4O[C@H](CO)[C@H](O)[C@H](O)[C@H]4O)nn3)NC2=O)NC(=O)[C@H](CCCCN)NC(=O)[C@H](CCCCNC(=O)/C=N/OCC(=O)NCCCC[C@@H]2NC(=O)[C@H](CCCCn3cc(CO[C@@H]4O[C@H](CO)[C@H](O)[C@H](O)[C@H]4O)nn3)NC(=O)CNC(=O)[C@@H]3CCCN3C(=O)[C@H](CCCCn3cc(CO[C@@H]4O[C@H](CO)[C@H](O)[C@H](O)[C@H]4O)nn3)NC(=O)[C@H](C)NC(=O)[C@H](CCCCn3cc(CO[C@@H]4O[C@H](CO)[C@H](O)[C@H](O)[C@H]4O)nn3)NC(=O)CNC(=O)[C@@H]3CCCN3C(=O)[C@H](CCCCn3cc(CO[C@@H]4O[C@H](CO)[C@H](O)[C@H](O)[C@H]4O)nn3)NC2=O)NC(=O)CNC(=O)[C@@H]2CCCN2C(=O)[C@H](CCCCNC(=O)/C=N/OCC(=O)NCCCC[C@@H]2NC(=O)[C@H](CCCCn3cc(CO[C@@H]4O[C@H](CO)[C@H](O)[C@H](O)[C@H]4O)nn3)NC(=O)CNC(=O)[C@@H]3CCCN3C(=O)[C@H](CCCCn3cc(CO[C@@H]4O[C@H](CO)[C@H](O)[C@H](O)[C@H]4O)nn3)NC(=O)[C@H](C)NC(=O)[C@H](CCCCn3cc(CO[C@@H]4O[C@H](CO)[C@H](O)[C@H](O)[C@H]4O)nn3)NC(=O)CNC(=O)[C@@H]3CCCN3C(=O)[C@H](CCCCn3cc(CO[C@@H]4O[C@H](CO)[C@H](O)[C@H](O)[C@H]4O)nn3)NC2=O)NC1=O [Compound 20] the “lower β factor than 18” value (LecA, 20 versus 18) was 2.5, the “–ΔH (binding enthalpy)” value (LecA) was 90.3 kcal/mol and the “n (stoichiometry, glycocluster molecules per lectin monomer)” value (LecA) was 0.09. For the same compound, the “–ΔG” value (LecA) was 10.7 kcal/mol, the “–ΔH” value (LecA) was 90.49 ± 3.59 kcal/mol and the “−TΔS” value (LecA) was 79.78 kcal/mol. For the same compound, the “binding to LecA in words” value (LecA, abstract) was “nanomolar affinity”, the “α (relative potency compared to the monovalent compound)” value (LecA) was 10,000 and 10,714 and the “β (relative potency per sugar unit)” value (LecA) was 670.

C[C@@H]1NC(=O)[C@H](CCCCNC(=O)/C=N/O[C@H]2O[C@H](CO)[C@@H](O)[C@H](O)[C@@H]2O)NC(=O)CNC(=O)[C@@H]2CCCN2C(=O)[C@H](CCCCNC(=O)/C=N/O[C@H]2O[C@H](CO)[C@@H](O)[C@H](O)[C@@H]2O)NC(=O)[C@H](CCCCNC(=O)CO/N=C/C(=O)NCCCC[C@@H]2NC(=O)CNC(=O)[C@@H]3CCCN3C(=O)[C@H](CCCCNC(=O)/C=N/OCC(=O)NCCCC[C@@H]3NC(=O)[C@H](CCCCNC(=O)/C=N/O[C@H]4O[C@H](CO)[C@@H](O)[C@H](O)[C@@H]4O)NC(=O)CNC(=O)[C@@H]4CCCN4C(=O)[C@H](CCCCNC(=O)/C=N/O[C@H]4O[C@H](CO)[C@@H](O)[C@H](O)[C@@H]4O)NC(=O)[C@H](C)NC(=O)[C@H](CCCCNC(=O)/C=N/O[C@H]4O[C@H](CO)[C@@H](O)[C@H](O)[C@@H]4O)NC(=O)CNC(=O)[C@@H]4CCCN4C(=O)[C@H](CCCCNC(=O)/C=N/O[C@H]4O[C@H](CO)[C@@H](O)[C@H](O)[C@@H]4O)NC3=O)NC(=O)[C@H](CCCCN)NC(=O)[C@H](CCCCNC(=O)CO/N=C/C(=O)NCCCC[C@@H]3NC(=O)[C@H](CCCCn4cc(CO[C@@H]5O[C@H](CO)[C@H](O)[C@H](O)[C@H]5O)nn4)NC(=O)CNC(=O)[C@@H]4CCCN4C(=O)[C@H](CCCCn4cc(CO[C@@H]5O[C@H](CO)[C@H](O)[C@H](O)[C@H]5O)nn4)NC(=O)[C@H](C)NC(=O)[C@H](CCCCn4cc(CO[C@@H]5O[C@H](CO)[C@H](O)[C@H](O)[C@H]5O)nn4)NC(=O)CNC(=O)[C@@H]4CCCN4C(=O)[C@H](CCCCn4cc(CO[C@@H]5O[C@H](CO)[C@H](O)[C@H](O)[C@H]5O)nn4)NC3=O)NC(=O)CNC(=O)[C@@H]3CCCN3C(=O)[C@H](CCCCNC(=O)CO/N=C/C(=O)NCCCC[C@@H]3NC(=O)[C@H](CCCCn4cc(CO[C@@H]5O[C@H](CO)[C@H](O)[C@H](O)[C@H]5O)nn4)NC(=O)CNC(=O)[C@@H]4CCCN4C(=O)[C@H](CCCCn4cc(CO[C@@H]5O[C@H](CO)[C@H](O)[C@H](O)[C@H]5O)nn4)NC(=O)[C@H](C)NC(=O)[C@H](CCCCn4cc(CO[C@@H]5O[C@H](CO)[C@H](O)[C@H](O)[C@H]5O)nn4)NC(=O)CNC(=O)[C@@H]4CCCN4C(=O)[C@H](CCCCn4cc(CO[C@@H]5O[C@H](CO)[C@H](O)[C@H](O)[C@H]5O)nn4)NC3=O)NC(=O)[C@H](C)NC2=O)NC(=O)[C@H](CCCCNC(=O)/C=N/O[C@H]2O[C@H](CO)[C@@H](O)[C@H](O)[C@@H]2O)NC(=O)CNC(=O)[C@@H]2CCCN2C(=O)[C@H](CCCCNC(=O)/C=N/O[C@H]2O[C@H](CO)[C@@H](O)[C@H](O)[C@@H]2O)NC1=O [Compound 14] was tested, and the Kd was 21 ± 4 nM, the “–ΔH (binding enthalpy)” value (LecA) was 51.6 to 58.1 kcal/mol and the “n (stoichiometry, glycocluster molecules per lectin monomer)” value (LecA) was 0.16. For the same compound, the “–ΔG” value (LecA) was 10.5 kcal/mol, the “–ΔH” value (LecA) was 58.13 ± 4.54 kcal/mol and the “−TΔS” value (LecA) was 47.6 kcal/mol. For the same compound, the “α (relative potency compared to the monovalent compound)” value (LecA) was 7,142 and the “β (relative potency per sugar unit)” value (LecA) was 900 and 893.
